Columns and labels:
Type in all cases: biochemical
p110β/p85α = p110β/p85α (Homo sapiens, UniProt P42338); assay: Transcreener KINASE Assay, kinase inhibition of p110β/p85α; details: for PI3Kβ IH % @ 1 uM: 1 uM test compound; for IC50: read-out: PI3Kβ IC50
In short: (§1)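 Steps: compound (2% DMSO final) plus enzyme in HEPES/NaCl/EGTA/CHAPS/3 mM MgCl2/1 mM DTT buffer; start with PIP2/ATP addition (30 uM/10 uM solution); 80 min RT; add ADP detection mix, 60 min RT; read fluorescence polarization.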

p110δ/p85α = p110δ/p85α (Homo sapiens, UniProt O00329); assay: Transcreener KINASE Assay, kinase inhibition of p110δ/p85α; details: for PI3Kδ IH % @ 1 uM: 1 uM test compound; for IC50: read-out: PI3Kδ IC50
Sequence of p110δ/p85α (O00329 whole entry): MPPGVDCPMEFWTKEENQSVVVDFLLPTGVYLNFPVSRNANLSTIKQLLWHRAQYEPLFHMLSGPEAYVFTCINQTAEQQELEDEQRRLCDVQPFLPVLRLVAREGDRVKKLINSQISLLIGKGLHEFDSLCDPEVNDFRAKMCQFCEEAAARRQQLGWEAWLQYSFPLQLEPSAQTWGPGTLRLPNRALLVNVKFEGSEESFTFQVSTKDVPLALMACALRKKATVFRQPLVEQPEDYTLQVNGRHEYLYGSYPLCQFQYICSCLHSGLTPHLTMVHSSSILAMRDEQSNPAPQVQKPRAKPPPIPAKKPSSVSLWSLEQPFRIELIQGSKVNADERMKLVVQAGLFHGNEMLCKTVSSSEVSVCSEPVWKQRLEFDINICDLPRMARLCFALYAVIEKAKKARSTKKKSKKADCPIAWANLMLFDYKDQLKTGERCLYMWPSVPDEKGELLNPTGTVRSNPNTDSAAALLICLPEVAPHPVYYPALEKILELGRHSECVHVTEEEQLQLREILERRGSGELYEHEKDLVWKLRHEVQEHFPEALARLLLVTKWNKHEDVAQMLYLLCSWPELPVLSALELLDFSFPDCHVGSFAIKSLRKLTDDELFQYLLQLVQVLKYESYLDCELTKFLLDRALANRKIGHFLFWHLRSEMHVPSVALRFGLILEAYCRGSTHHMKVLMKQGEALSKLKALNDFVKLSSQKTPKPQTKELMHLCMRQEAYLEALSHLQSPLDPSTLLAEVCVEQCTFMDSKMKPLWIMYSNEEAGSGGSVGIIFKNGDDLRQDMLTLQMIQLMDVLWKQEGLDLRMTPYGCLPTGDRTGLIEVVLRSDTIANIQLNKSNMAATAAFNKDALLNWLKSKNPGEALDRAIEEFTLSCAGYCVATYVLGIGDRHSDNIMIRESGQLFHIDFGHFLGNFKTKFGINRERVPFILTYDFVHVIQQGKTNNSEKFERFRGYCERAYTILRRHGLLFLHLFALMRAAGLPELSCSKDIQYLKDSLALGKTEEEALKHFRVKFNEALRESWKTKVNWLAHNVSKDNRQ
Sequence of p110δ/p85α (P27986 whole entry partner): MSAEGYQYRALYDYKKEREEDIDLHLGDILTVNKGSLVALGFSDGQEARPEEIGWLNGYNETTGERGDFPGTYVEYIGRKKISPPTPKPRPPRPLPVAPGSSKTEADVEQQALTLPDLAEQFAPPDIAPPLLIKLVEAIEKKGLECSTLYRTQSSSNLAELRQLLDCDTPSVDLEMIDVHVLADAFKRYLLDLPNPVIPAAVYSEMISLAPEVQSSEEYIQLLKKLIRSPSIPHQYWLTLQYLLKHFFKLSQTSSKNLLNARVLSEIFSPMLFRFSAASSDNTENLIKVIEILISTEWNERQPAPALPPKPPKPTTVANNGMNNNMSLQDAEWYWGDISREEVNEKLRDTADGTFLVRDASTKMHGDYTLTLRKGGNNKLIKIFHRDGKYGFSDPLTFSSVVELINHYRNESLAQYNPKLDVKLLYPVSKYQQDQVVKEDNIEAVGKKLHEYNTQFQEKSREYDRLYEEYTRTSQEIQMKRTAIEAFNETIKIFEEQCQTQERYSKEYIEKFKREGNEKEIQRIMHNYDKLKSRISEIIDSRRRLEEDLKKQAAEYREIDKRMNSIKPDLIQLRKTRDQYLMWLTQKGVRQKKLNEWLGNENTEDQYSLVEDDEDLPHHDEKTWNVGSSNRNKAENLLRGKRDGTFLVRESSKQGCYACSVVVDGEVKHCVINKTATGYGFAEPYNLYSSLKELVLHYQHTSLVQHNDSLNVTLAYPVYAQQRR
In short: as §1

p110γ = p110γ (Homo sapiens, UniProt P48736); assay: Transcreener KINASE Assay, kinase inhibition of p110γ; details: for PI3Kγ IH % @ 1 uM: 1 uM test compound; for IC50: read-out: PI3Kγ IC50
Sequence of p110γ (P48736 whole entry): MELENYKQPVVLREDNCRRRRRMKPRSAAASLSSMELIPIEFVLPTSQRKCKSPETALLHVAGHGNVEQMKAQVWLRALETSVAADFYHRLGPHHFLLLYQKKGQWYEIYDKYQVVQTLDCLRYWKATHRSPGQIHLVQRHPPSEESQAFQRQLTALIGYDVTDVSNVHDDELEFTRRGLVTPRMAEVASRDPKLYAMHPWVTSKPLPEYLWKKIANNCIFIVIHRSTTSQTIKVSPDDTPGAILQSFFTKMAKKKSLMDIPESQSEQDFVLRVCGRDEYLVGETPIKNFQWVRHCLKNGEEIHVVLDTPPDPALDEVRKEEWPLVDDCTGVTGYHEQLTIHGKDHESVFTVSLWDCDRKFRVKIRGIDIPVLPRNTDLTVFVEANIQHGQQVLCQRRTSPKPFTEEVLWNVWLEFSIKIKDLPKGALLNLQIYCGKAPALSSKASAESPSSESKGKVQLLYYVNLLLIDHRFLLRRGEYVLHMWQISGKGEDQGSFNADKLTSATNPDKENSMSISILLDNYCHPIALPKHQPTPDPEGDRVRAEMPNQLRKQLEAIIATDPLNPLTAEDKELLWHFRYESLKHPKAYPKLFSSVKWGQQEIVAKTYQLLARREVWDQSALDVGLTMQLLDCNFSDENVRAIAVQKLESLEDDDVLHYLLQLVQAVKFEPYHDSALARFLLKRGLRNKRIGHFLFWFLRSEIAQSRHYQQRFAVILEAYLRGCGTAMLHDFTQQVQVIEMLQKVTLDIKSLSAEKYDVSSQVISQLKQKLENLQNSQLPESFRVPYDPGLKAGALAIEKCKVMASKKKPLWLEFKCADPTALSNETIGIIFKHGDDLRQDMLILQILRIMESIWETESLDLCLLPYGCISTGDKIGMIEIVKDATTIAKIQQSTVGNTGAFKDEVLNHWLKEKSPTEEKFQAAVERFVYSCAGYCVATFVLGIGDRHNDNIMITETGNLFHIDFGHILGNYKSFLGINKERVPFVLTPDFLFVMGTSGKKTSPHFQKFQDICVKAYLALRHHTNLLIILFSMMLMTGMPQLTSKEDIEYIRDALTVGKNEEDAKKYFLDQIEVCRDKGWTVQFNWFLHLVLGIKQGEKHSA
In short: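 FP read-out: far-red competitive immunoassay sensing ADP produced by recombinant p110/p85 or p110γ enzyme. Reaction 80 min RT, then detection mix 60 min RT. IC50 from curve fit.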

Sequence of p110β/p85α (P42338 whole entry): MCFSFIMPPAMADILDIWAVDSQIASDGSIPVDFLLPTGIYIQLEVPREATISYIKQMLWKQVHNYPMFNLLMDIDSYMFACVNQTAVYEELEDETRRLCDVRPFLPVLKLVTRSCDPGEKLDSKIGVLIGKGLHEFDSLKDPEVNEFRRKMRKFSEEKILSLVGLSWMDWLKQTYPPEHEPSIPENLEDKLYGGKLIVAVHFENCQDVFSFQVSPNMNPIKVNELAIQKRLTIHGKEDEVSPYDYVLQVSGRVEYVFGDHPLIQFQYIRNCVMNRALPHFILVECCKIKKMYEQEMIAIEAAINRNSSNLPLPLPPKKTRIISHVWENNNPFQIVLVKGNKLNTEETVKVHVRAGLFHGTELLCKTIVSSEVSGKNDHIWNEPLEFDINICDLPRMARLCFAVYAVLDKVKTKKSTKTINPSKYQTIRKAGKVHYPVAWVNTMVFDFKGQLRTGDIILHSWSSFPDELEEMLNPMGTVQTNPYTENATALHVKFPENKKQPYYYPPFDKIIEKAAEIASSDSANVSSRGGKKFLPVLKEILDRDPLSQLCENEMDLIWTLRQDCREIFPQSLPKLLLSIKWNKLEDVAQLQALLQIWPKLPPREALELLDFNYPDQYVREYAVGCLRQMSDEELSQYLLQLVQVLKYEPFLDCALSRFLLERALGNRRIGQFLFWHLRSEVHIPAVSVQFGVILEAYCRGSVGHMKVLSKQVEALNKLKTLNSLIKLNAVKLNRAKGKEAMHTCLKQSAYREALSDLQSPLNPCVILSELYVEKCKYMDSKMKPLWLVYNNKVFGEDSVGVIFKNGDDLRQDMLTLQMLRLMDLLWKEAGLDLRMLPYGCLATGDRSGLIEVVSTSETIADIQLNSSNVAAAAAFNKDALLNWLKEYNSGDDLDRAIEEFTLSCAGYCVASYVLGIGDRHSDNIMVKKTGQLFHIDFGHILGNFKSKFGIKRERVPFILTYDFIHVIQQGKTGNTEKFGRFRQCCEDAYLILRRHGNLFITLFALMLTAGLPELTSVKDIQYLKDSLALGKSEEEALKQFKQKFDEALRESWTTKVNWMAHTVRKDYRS
Sequence of p110β/p85α (P27986 2-724 partner): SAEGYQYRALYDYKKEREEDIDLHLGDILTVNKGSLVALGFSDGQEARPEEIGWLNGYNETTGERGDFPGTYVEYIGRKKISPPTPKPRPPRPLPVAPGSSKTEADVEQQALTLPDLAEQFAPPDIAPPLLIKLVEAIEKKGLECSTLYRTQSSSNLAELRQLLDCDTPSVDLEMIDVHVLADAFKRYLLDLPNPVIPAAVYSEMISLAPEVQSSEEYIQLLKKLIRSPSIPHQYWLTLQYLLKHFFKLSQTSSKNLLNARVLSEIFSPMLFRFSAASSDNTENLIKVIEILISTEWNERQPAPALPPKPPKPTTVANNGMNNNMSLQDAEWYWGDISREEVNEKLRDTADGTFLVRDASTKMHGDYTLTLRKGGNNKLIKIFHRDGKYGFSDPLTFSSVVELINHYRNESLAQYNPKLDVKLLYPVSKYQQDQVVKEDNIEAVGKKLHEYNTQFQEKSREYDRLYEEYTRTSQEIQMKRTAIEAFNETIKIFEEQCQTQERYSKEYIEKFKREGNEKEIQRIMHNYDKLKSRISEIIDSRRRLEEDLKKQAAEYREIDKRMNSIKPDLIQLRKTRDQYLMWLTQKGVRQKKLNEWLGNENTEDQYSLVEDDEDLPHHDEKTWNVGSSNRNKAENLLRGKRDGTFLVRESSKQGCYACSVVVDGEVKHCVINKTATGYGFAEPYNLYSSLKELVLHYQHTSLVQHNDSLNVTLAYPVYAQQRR

| PI3Kβ IH % @ 1 uM (p110β/p85α) [%] | PI3Kδ IH % @ 1 uM (p110δ/p85α) [%] | IC50 (p110δ/p85α) [nM] | PI3Kγ IH % @ 1 uM (p110γ) [%] | IC50 (p110γ) [nM] | IC50 (p110β/p85α) [nM] | Compound |
| --- | --- | --- | --- | --- | --- | --- |
| 17.0 | 97.1 | 30 | 79.8 | 89 |  | O=c1c2c(CO)ccn2nc([C@@H]2CCCN2c2ncnc3[nH]cnc23)n1-c1ccccc1 [Compound 177, (S)-2-(1-(9H-purin-6-yl)pyrrolidin-2-yl)-5-(hydroxymethyl)-3-phenylpyrrolo[2,1-f][1,2,4]triazin-4(3H)-one] |
| 1.5 | 82.3 | 211 | 7.6 |  |  | Nc1ncc(C(F)(F)F)c(N2CCC[C@H]2c2nn3ccc(CO)c3c(=O)n2-c2ccccc2)n1 [Compound 178] |
| 51.5 | >100 | 2 | 97.9 | 15 |  | N#Cc1c[nH]c2ncnc(N3CCC[C@H]3c3nn4ccc(CO)c4c(=O)n3-c3ccccc3)c12 [Compound 179] |
| 92.8 | >100 | < 0.46 | 98.7 | 2 | 41 | Nc1ncc(-c2c[nH]c3ncnc(N4CC[C@H]4c4nn5ccc(F)c5c(=O)n4-c4ccccc4)c23)cn1 [Compound 180, (S)-2-(1-(5-(2-aminopyrimidin-5-yl)-7H-pyrrolo[2,3-d]pyrimidin-4-yl)azetidin-2-yl)-5-fluoro-3-phenylpyrrolo[2,1-f][1,2,4]triazin-4(3H)-one] |
| 95.9 | >100 |  | >100 | 4 | 23 | COc1ncc(-c2c[nH]c3ncnc(N4CC[C@H]4c4nn5ccc(F)c5c(=O)n4-c4ccccc4)c23)cn1 [Compound 181] |
| 93.3 | >100 |  | 94.9 | 7 | 62 | COc1ccc(-c2c[nH]c3ncnc(N4CC[C@H]4c4nn5ccc(F)c5c(=O)n4-c4ccccc4)c23)cn1 [Compound 182] |
| 77.2 | >100 |  | >100 | 5 | 331 | Nc1ccc(-c2c[nH]c3ncnc(N4CC[C@H]4c4nn5ccc(F)c5c(=O)n4-c4ccccc4)c23)cn1 [Compound 183] |
| >100 | >100 | 0.5 | 98.4 | 8 | 38 | N#Cc1ncc(-c2c[nH]c3ncnc(N4CC[C@H]4c4nn5ccc(F)c5c(=O)n4-c4ccccc4)c23)cn1 [Compound 184] |
| 45.9 | >100 | 6 | 99.0 |  |  | CC(=O)c1c[nH]c2ncnc(N3CC[C@H]3c3nn4ccc(Cl)c4c(=O)n3-c3ccccc3)c12 [Compound 185, (S)-2-(1-(5-acetyl-7H-pyrrolo[2,3-d]pyrimidin-4-yl)azetidin-2-yl)-5-chloro-3-phenylpyrrolo[2,1-f][1,2,4]triazin-4(3H)-one] |
| 52.9 | 92.0 | 3 | 84.1 |  |  | O=c1c2c(F)ccn2nc([C@@H]2CCCN2c2ncnc3[nH]cnc23)n1-c1ccccc1 [Compound 190] |
| 56.8 | >100 | 3 | >100 | 32 |  | O=c1c2c(F)ccn2nc([C@@H]2CCCN2c2ncnc3[nH]cnc23)n1-c1cccc(F)c1 [Compound 191] |
| 65.3 | 98.5 | 4 | >100 | 18 |  | CS(=O)(=O)c1cccc(-n2c([C@@H]3CCCN3c3ncnc4[nH]cc(C#N)c34)nn3ccc(Cl)c3c2=O)c1 [Compound 192] |
| 31.5 | >100 | 23 | 93.7 | 121 |  | CS(=O)(=O)c1cccc(-n2c([C@@H]3CCCN3c3ncnc4[nH]cnc34)nn3ccc(Cl)c3c2=O)c1 [Compound 193] |
| 29.5 | >100 | 23 | 75.1 | 150 |  | N#Cc1c(N)ncnc1N1CC[C@H]1c1nn2ccc(Br)c2c(=O)n1-c1ccccc1 [Compound 194] |
| 32.3 | 97.1 | 69 | >100 | 65 |  | C[S+]([O-])c1c[nH]c2ncnc(N3CC[C@H]3c3nn4ccc(Cl)c4c(=O)n3-c3ccccc3)c12 (stereo partly shown) [Compound 196] |
| 17.1 | 59.5 | 2000 | 94.6 | 34 |  | C[S+]([O-])c1c[nH]c2ncnc(N3CC[C@H]3c3nn4ccc(Cl)c4c(=O)n3-c3ccc(F)cc3)c12 (stereo partly shown) [Compound 199] |
| 28.2 | 90.9 | 196 | 93.4 | 190 |  | CNc1ncnc(N2CCC[C@H]2c2nn3ccc(Cl)c3c(=O)n2-c2ccccc2)n1 [Compound 200] |
| 25.3 | >100 | 19 | >100 | 49 |  | Cc1nc(N)nc(N2CCC[C@H]2c2nn3ccc(Cl)c3c(=O)n2-c2ccccc2)n1 [Compound 201] |
| 23.3 | 94.6 | 100 | 65.3 |  |  | O=c1c2c(Cl)ccn2nc([C@@H]2CCCCN2c2ncnc3[nH]cnc23)n1-c1ccccc1 [Compound 203] |
| 28.9 | 85.1 | 109 | 84.2 | 250 |  | C[S+]([O-])c1c[nH]c2ncnc(N3CC[C@H]3c3nn4ccc(F)c4c(=O)n3-c3ccccc3)c12 (stereo partly shown) [Compound 204] |
| 21.6 | 76.1 | 74 | 76.1 | 229 |  | Cc1nc(N)nc(N2CC[C@H]2c2nn3ccc(Cl)c3c(=O)n2-c2ccccc2)n1 [Compound 205] |
| 80.4 | >100 | 1 | >100 |  | 298 | N#Cc1cnc(N)nc1N1CCC[C@H]1c1nn2ccc(Cl)c2c(=O)n1-c1ccccc1 [Compound 207] |
| 81.7 | 97.4 | 4 | 92.2 | 3 | 89 | CC(=O)c1c[nH]c2ncnc(N3CCC[C@H]3c3nn4ccc(Cl)c4c(=O)n3-c3ccc(F)cc3)c12 [Compound 208] |
| 53.5 | 94.2 | 12 | 89.6 | 30 |  | C[S+]([O-])c1c[nH]c2ncnc(N3CCC[C@H]3c3nn4ccc(Cl)c4c(=O)n3-c3ccc(F)cc3)c12 (stereo partly shown) [Compound 209] |
| 69.1 | 98.6 | 2 | 92.0 |  | 191 | CC(=O)c1c[nH]c2ncnc(N3CCC[C@H]3c3nn4ccc(Cl)c4c(=O)n3-c3cccc(F)c3)c12 [Compound 210] |
| 88.3 | 98.4 | 0.5 | 92.2 |  | 51 | CC(=O)c1c[nH]c2ncnc(N3CCC[C@H]3c3nn4ccc(Cl)c4c(=O)n3-c3ccccc3)c12 [Compound 211] |
| 37.0 | 95.3 | 12 | >100 |  |  | N#Cc1cnc(N)nc1N1CC[C@H]1c1nn2ccc(Cl)c2c(=O)n1-c1ccccc1 [Compound 212] |

From patent publication US20150307520A1, “NOVEL HETEROARYL AND HETEROCYCLE COMPOUNDS, COMPOSITIONS AND METHODS THEREOF” (HUTCHISON MEDIPHARMA LIMITED, priority 2012, published 2015)
